The results in this text go back to US20230265116A1, “DEGRADATION OF (EGFR) BY CONJUGATION OF EGFR INHIBITORS WITH E3 LIGASE LIGAND AND METHODS OF USE” (BEIGENE, LTD., priority 2020, published 2023).

As usually defined, the Dmax is the largest share of the target that was removed. The DC50 is the concentration giving 50% degradation.

The structures appear in SMILES notation. Structures can show the parent of a compound that is named as a salt.

Holding throughout (type): cell-based
Assay [1] has as its target T1, EGFR L858R/T790M/C797S (BaF3-LTC cells) (Homo sapiens, UniProt P00533, C797S/L858R/T790M).
T1 construct: expressed in transfected cells; host or cells: BaF3
Briefly: EGFR degradation HTRF assay, BaF3-LTC cells. The conditions noted are these: BaF3-LTC, 16h treatment; for Dmax: maximum percentage of degradation, read-out: LTC Dmax (%). The essentials: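 EGFR remaining after a 16 h, 37 °C exposure (8 doses, 5-fold steps from 10 uM final, 0.2% DMSO) was quantified by HTRF antibodies in cell lysate. Percent inhibition relative to DMSO control was fitted by four-parameter logistic to give DC50; Dmax denotes maximal degradation.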

In assay [2] the test system is EGFR Del19/T790M/C797S (BaF3-DTC cells). In words: EGFR degradation HTRF assay, BaF3-DTC cells. Particulars: 16h treatment. An outline of the steps:
(§1)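 BaF3 (WT, Del19/T790M/C797S) and HCC827 cells exposed 16 h at 37 °C, 5% CO2 to compounds in 0.2% DMSO medium, 8 doses from 10 uM top, 5-fold steps. Lysates read by HTRF (665/620 nm); degradation % vs DMSO control, DC50 from four-parameter fit, Dmax as maximal degradation.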

Assay [3] addresses T2, EGFR (HCC827 cells) (Homo sapiens, UniProt P00533, DEL746-750).
T2 construct: endogenous in cells; host or cells: HCC827
In words: EGFR degradation HTRF assay, HCC827 cells. Particulars: HCC827, 16h treatment; for Dmax: maximum percentage of degradation. An outline of the steps: as §1
On the technique in general: TR-FRET usually uses a lanthanide donor and a delayed reading to cut background.

Assay [4] has as its target T3, EGFR L858R/T790M (H1975-clone #36, homozygous) (Homo sapiens, UniProt P00533, L858R/T790M).
T3 construct: designed to specifically target WT EGFR but preserve the L858R/T790M copy; host or cells: H1975-clone #36
In words: EGFR degradation HTRF assay, H1975-clone #36 cells. Particulars: H1975 #36, 16h treatment; for Dmax: NCI-H1975, maximum percentage of degradation. An outline of the steps: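 Eight-point, 5-fold series starting at 10 uM (0.2% DMSO) applied for 16 h, 37 °C, to a WT-EGFR-knockout H1975 clone carrying only L858R/T790M. Lysates read by HTRF overnight. Degradation percentage relative to DMSO control fitted for DC50, with Dmax as maximum degradation.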

T2 sequence (P00533 with tags, fused parts or gaps DEL746-750): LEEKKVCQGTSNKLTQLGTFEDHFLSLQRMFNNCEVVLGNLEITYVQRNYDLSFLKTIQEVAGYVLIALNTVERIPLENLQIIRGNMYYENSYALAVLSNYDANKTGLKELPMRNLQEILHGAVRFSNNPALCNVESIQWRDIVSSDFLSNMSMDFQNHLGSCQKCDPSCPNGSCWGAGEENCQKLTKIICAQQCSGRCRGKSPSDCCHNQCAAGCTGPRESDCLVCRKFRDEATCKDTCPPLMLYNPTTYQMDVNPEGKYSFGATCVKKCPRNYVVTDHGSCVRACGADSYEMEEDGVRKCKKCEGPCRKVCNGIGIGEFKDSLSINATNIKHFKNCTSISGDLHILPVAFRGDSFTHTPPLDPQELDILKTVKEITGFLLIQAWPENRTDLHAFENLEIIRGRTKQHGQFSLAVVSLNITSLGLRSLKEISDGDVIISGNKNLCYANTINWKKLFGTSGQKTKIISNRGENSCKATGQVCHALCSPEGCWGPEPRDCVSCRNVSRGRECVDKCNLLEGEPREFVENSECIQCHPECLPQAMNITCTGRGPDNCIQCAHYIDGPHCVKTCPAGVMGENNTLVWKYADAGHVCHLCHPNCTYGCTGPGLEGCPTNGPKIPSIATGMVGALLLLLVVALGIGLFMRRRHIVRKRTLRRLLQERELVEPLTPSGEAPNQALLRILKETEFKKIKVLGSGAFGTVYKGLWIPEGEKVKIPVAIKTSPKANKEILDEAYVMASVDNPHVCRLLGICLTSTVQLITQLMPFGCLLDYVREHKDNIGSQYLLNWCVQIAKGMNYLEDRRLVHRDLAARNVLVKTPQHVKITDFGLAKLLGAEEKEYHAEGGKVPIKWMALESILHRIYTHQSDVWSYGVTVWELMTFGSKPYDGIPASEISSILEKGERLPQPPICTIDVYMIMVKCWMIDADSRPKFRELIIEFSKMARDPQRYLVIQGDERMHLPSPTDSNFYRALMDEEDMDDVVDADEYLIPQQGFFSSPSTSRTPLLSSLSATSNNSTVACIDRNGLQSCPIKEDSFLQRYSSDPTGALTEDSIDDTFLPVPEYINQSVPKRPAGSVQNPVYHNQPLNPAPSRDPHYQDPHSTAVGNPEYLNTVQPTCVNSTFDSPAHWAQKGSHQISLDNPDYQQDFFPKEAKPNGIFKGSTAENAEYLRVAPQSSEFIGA
T3 sequence (P00533 25-1210 T790M/L858R): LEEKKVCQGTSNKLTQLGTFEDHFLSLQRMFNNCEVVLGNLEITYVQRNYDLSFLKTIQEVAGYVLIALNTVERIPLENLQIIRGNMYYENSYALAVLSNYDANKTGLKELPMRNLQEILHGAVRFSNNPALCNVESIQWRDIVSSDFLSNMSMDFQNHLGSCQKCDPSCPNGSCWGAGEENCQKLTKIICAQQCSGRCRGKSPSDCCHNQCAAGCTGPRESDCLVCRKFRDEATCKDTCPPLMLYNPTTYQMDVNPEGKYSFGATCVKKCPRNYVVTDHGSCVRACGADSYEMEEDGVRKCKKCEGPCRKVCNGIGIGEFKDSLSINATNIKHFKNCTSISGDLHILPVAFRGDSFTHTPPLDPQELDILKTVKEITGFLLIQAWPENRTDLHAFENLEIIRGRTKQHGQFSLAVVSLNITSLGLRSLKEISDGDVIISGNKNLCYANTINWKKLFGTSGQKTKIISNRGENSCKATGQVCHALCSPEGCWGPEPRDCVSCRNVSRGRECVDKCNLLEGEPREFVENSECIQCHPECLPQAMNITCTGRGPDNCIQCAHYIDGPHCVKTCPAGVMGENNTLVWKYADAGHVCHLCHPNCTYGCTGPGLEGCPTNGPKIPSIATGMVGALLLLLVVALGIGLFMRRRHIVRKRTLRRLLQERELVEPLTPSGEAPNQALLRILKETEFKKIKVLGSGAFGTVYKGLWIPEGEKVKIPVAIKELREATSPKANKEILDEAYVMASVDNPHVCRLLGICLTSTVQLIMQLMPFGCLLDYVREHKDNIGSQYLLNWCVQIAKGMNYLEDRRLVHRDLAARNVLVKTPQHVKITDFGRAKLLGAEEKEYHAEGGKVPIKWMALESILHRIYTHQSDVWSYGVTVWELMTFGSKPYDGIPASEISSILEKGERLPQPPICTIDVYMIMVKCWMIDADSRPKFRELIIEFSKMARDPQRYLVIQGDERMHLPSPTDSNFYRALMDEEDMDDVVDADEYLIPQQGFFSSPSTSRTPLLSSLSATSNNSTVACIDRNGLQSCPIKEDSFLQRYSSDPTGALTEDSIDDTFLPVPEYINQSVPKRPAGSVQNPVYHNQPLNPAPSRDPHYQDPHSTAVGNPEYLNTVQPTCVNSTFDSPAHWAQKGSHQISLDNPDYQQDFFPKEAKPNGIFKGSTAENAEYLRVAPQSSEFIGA
T1 sequence (P00533 25-1210 T790M/C797S/L858R): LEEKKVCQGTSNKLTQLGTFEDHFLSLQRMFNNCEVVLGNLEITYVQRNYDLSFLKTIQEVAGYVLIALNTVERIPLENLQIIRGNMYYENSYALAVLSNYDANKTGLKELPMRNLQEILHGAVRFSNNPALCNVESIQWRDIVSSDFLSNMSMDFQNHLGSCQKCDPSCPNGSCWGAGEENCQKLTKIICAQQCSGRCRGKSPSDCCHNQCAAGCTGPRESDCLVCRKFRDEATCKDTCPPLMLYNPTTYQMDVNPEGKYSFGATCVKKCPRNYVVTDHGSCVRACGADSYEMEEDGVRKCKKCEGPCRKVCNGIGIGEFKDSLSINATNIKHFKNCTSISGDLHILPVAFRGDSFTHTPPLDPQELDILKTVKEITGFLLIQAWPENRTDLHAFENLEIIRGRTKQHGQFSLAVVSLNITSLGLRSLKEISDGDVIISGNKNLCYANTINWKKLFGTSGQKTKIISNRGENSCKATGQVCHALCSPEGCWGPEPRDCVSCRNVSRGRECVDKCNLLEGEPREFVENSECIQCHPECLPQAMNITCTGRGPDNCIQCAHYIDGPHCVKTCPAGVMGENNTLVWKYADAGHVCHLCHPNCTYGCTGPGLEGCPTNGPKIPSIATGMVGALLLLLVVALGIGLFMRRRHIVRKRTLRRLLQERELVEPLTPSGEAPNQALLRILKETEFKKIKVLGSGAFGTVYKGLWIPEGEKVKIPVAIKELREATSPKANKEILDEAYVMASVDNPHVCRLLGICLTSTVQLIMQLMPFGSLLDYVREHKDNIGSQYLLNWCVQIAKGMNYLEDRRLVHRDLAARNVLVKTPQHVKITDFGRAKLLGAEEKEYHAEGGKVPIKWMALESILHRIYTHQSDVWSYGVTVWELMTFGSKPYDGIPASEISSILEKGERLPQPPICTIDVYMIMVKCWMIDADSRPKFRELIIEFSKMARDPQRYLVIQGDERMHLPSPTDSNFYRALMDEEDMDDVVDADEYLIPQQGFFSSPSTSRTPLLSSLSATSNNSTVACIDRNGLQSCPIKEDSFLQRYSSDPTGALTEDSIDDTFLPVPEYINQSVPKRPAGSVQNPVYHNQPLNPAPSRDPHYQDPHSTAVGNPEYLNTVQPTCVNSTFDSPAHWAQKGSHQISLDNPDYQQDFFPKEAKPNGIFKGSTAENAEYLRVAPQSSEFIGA

As to `CCc1cc(Nc2ncc(Br)c(Nc3ccc4nccnc4c3P(C)(C)=O)n2)c(OC)cc1N1CCC(N2CCN(CCc3ccc(C4CCC(=O)NC4=O)c(F)c3F)CC2)CC1` (stereo not shown) [Example 10, 3-(4-(2-(4-(1-(4-((5-bromo-4-((5-(dimethylphosphoryl)quinoxalin-6-yl)amino)pyrimidin-2-yl)amino)-2-ethyl-5-methoxyphenyl)piperidin-4-yl)piperazin-1-yl)ethyl)-2,3-difluorophenyl)piperidine-2,6-dione], the greatest degradation seen (Dmax) in assay [1] came to 88.7%; in assay [3], 83.3%; in assay [4], 82.6%. In addition, the DC50 in assay [1] (read-out: LTC DC50) was determined as 83.3 nM; in assay [2] (read-out: DTC DC50) it was 15.4 nM; in assay [3] it was 12.3 nM; in assay [4], 15.9 nM. In addition, the “DTC Dmax (%)” value in assay [2] (maximum percentage of degradation) amounted to 85.51%.
As to `CCc1cc(Nc2ncc(Br)c(Nc3ccc4nccnc4c3P(C)(C)=O)n2)c(OC)cc1N1CCC(N2CCN(CCc3cc(F)c(C4CCC(=O)NC4=O)c(F)c3)CC2)CC1` (stereo not shown) [Example 11, 3-(4-(2-(4-(1-(4-((5-bromo-4-((5-(dimethylphosphoryl)quinoxalin-6-yl)amino)pyrimidin-2-yl)amino)-2-ethyl-5-methoxyphenyl)piperidin-4-yl)piperazin-1-yl)ethyl)-2,6-difluorophenyl)piperidine-2,6-dione], the Dmax in assay [1] turned out to be 91.9%; in assay [3] it was 86.4%; in assay [4] it was 97.4%. In addition, the results for the 50% degradation concentration (DC50) in assay [3] and in assay [4] were 2.84 nM and 5.41 nM, respectively.
In assay [3], `COc1cc(N2CCC(N3CCN(CCc4ccc(C5CCC(=O)NC5=O)cc4)CC3)CC2)ccc1Nc1ncc(Cl)c(Nc2ccccc2N(C)S(C)(=O)=O)n1` (stereo not shown) [Example 119, N-(2-((5-chloro-2-((4-(4-(4-(4-(2,6-dioxopiperidin-3-yl)phenethyl)piperazin-1-yl)piperidin-1-yl)-2-methoxyphenyl)amino)pyrimidin-4-yl)amino)phenyl)-N-methylmethane sulfonamide] displayed a DC50 of 12.8 nM and a maximal degradation (Dmax) of 85.3%. In assay [4], this molecule came in with a DC50 of 9.02 nM and a Dmax of 83.9%.
Turning to `COc1cc(N2CCN(C3CCN(CCc4ccc(C5CCC(=O)NC5=O)cc4)CC3)CC2)ccc1Nc1ncc(Cl)c(Nc2ccccc2N(C)S(C)(=O)=O)n1` (stereo not shown) [Example 120, N-(2-((5-chloro-2-((4-(4-(1-(4-(2,6-dioxopiperidin-3-yl)phenethyl)piperidin-4-yl)piperazin-1-yl)-2-methoxyphenyl)amino)pyrimidin-4-yl)amino)phenyl)-N-methylmethanesulfonamide hydrochloride], the 50% degradation concentration (DC50) is 14.2 nM in assay [3] and 5.22 nM in assay [4]. The Dmax in assay [3] was found to be 86.4%; in assay [4], 91.6%.
In the same order, the values of `COc1cc(N2CCC(N3CCN(CCC4CCN(c5ccc(N6CCC(=O)NC6=O)c(F)c5)CC4)CC3)CC2)ccc1Nc1ncc(Cl)c(Nc2ccccc2N(C)S(C)(=O)=O)n1` [Example 125, N-(2-((5-chloro-2-((4-(4-(4-(2-(1-(4-(2,4-dioxotetrahydropyrimidin-1(2H)-yl)-3-fluorophenyl)piperidin-4-yl)ethyl)piperazin-1-yl)piperidin-1-yl)-2-methoxyphenyl)amino)pyrimidin-4-yl)amino)phenyl)-N-methylmethanesulfonamide] are 103 nM, over 10000 nM, 73.5% and 27.2%.
In assay [3], `COc1cc(N2CCC(N3CCN(CCc4ccc(NC5CCC(=O)NC5=O)cc4)CC3)CC2)ccc1Nc1ncc(Cl)c(Nc2ccccc2N(C)S(C)(=O)=O)n1` (stereo not shown) [Example 126, N-(2-((5-chloro-2-((4-(4-(4-(4-((2,6-dioxopiperidin-3-yl)amino)phenethyl)piperazin-1-yl)piperidin-1-yl)-2-methoxyphenyl)amino)pyrimidin-4-yl)amino)phenyl)-N-methylmethanesulfonamide] showed a DC50 of 19.1 nM and a maximal degradation (Dmax) of 84%. For the same molecule, in assay [4], the DC50 turned out to be 2.61 nM and the Dmax was determined as 83.9%.
In assay [3], `COc1cc(N2CCC(N3CCN(CCCOc4ccc(OC5CCC(=O)NC5=O)cc4)CC3)CC2)ccc1Nc1ncc(Cl)c(Nc2ccccc2N(C)S(C)(=O)=O)n1` (stereo not shown) [Example 127, N-(2-((5-chloro-2-((4-(4-(4-(3-(4-((2,6-dioxopiperidin-3 yl)oxy)phenoxy)propyl)piperazin-1-yl)piperidin-1-yl)-2-methoxyphenyl)amino)pyrimidin-4-yl)amino)phenyl)-N-methylmethanesulfonamide] yielded a DC50 of 35.9 nM and a Dmax of 71.4%. Moreover, in assay [4], the 50% degradation concentration (DC50) amounted to 11.9 nM and the Dmax came to 64.7%.
Take `COc1cc(N2CCC(N3CCN(C(=O)C4CCN(CC5CCN(c6ccc7c(c6)C(=O)N(C6CCC(=O)NC6=O)C7=O)CC5)CC4)CC3)CC2)ccc1Nc1ncc(Cl)c(Nc2ccccc2N(C)S(C)(=O)=O)n1` (stereo not shown) [Example 129, N-(2-((5-chloro-2-((4-(4-(4-(1-((1-(2-(2,6-dioxopiperidin-3-yl)-1,3-dioxoisoindolin-5-yl)piperidin-4-yl)methyl)piperidine-4-carbonyl)piperazin-1-yl)piperidin-1-yl)-2-methoxyphenyl)amino)pyrimidin-4-yl)amino)phenyl)-N-methylmethanesulfonamide]: in assay [3], the DC50 was determined as 11.1 nM and the Dmax is 87.2%. In assay [4], this molecule gave a DC50 of 9.29 nM and a Dmax of 85.4%.
`COc1cc(N2CCC(N3CCN(CCc4ccc(C5CCC(=O)NC5=O)cc4)CC3)CC2)ccc1Nc1ncc(Cl)c(Nc2ccccc2NS(C)(=O)=O)n1` (stereo not shown) [Example 138, N-(2-((5-chloro-2-((4-(4-(4-(4-(2,6-dioxopiperidin-3-yl)phenethyl)piperazin-1-yl)piperidin-1-yl)-2-methoxyphenyl)amino)pyrimidin-4-yl)amino)phenyl)methanesulfonamide]: the 50% degradation concentration (DC50) in assay [3] was found to be 15.1 nM; in assay [4] it was 3.58 nM. Also, the Dmax was 82.2% in assay [3] and 87% in assay [4].
On to `COc1cc(N2CCC(N3CCN(CCc4ccc(NC5CCC(=O)NC5=O)cc4)CC3)CC2)ccc1Nc1ncc(Cl)c(Nc2ccccc2NS(C)(=O)=O)n1` (stereo not shown) [Example 140, N-(2-((5-chloro-2-((4-(4-(4-(4-((2,6-dioxopiperidin-3-yl)amino)phenethyl)piperazin-1-yl)piperidin-1-yl)-2-methoxyphenyl)amino)pyrimidin-4-yl)amino)phenyl)methanesulfonamide], for which the figures for the DC50 in assay [3] and in assay [4] were 8.56 nM and 5.24 nM, respectively. Also, the results for the greatest degradation seen (Dmax) in assay [3] and in assay [4] were 88.9% and 73.3%, respectively.
With `COc1cc(N2CCC(N3CCN(CCCOc4ccc(NC5CCC(=O)NC5=O)cc4)CC3)CC2)ccc1Nc1ncc(Cl)c(Nc2ccccc2NS(C)(=O)=O)n1` (stereo not shown) [Example 143, N-(2-((5-chloro-2-((4-(4-(4-(3-(4-((2,6-dioxopiperidin-3-yl)amino)phenoxy)propyl)piperazin-1-yl)piperidin-1-yl)-2-methoxyphenyl)amino)pyrimidin-4-yl)amino)phenyl) methanesulfonamide], the values for the DC50 in assay [3] and in assay [4] were 12.1 nM and 5.43 nM, respectively. In addition, the Dmax in assay [3] was 73%; in assay [4], 56.2%.
